Assay results: the NIST ThermoML archive (doi:10.1016/j.jct.2004.09.017)

What was measured:
[1] = relative permittivity at various frequencies (dimensionless); xn = mol fraction of the nth substance listed; settings: 298.2 K, 101.3 kPa, Liquid, Frequency=0.1 MHz, Wayne Kerr model 6425B Digibridge
[2] = refractive index (Na D-line) (dimensionless); xn = mol fraction of the nth substance listed; settings: 298.2 K, 101.3 kPa, Liquid
[3] = refractive index (Na D-line) (dimensionless); settings: 298.2 K; 101.33 kPa; Liquid
[4] = relative permittivity at various frequencies (dimensionless); settings: 298.2 K; 101.3 kPa; Liquid; Frequency=0.01 MHz; Wayne Kerr model 6425B Digibridge

CCCCC(CC)CO (configuration not stated) [2-ethyl-1-hexanol] + CC(C)(C)O
Settings | refractive index, [2] | relative permittivity, [1]
x2 = 0 | 1.4316 | 7.354
x2 = 0.05 | 1.4304 | 7.487
x2 = 0.07 | 1.4298 | 7.598
x2 = 0.09 | 1.429 | 7.653
x2 = 0.1 | 1.4287 | 7.685
x2 = 0.2 | 1.427 | 8.057
x2 = 0.3 | 1.4235 | 8.506
x2 = 0.4 | 1.42 | 8.933
x2 = 0.5 | 1.4163 | 9.398
x2 = 0.6 | 1.4117 | 9.952

CCCCC(CC)CO (configuration not stated) [2-ethyl-1-hexanol] + CCO
Settings | refractive index, [2] | relative permittivity, [1]
x2 = 0 | 1.4316 | 7.354
x2 = 0.12 | 1.4261 | 8.086
x2 = 0.23 | 1.4232 | 8.999
x2 = 0.32 | 1.4194 | 10.192
x2 = 0.4 | 1.4162 | 11.099
x2 = 0.47 | 1.4123 | 12.08
x2 = 0.53 | 1.4097 | 12.744
x2 = 0.64 | 1.4015 | 14.496
x2 = 0.7 | 1.3971 | 15.885
x2 = 0.82 | 1.386 | 18.259

C1CCCCC1 [cyclohexane] + CCCCO
Settings | refractive index, [2] | relative permittivity, [1]
x2 = 0.05 | 1.4206 | 2.439
x2 = 0.1 | 1.4191 | 2.683
x2 = 0.2 | 1.4162 | 3.112
x2 = 0.3 | 1.4132 | 3.952
x2 = 0.4 | 1.4109 | 4.888
x2 = 0.5 | 1.4085 | 6.713
x2 = 0.6 | 1.4061 | 8.451
x2 = 0.72 | 1.4035 | 10.848

CC(C)(C)O [2-methylpropan-2-ol] + C1CCCCC1
Settings | refractive index, [2] | relative permittivity, [1]
x1 = 0.07 | 1.4241 | 2.051
x1 = 0.1 | 1.4226 | 2.058
x1 = 0.2 | 1.4179 | 2.089
x1 = 0.3 | 1.4138 | 2.308
x1 = 0.4 | 1.41 | 2.586
x1 = 0.5 | 1.4056 | 3.096
x1 = 0.6 | 1.4007 | 3.88
x1 = 0.8 | 1.3928 | 6.422

CC(C)(C)O [2-methylpropan-2-ol] + CCCCC(CC)CO
x1 = 1
Settings | refractive index | relative permittivity
[1] | – | 12.23
[2] | 1.3864 | –

CCCCO [butan-1-ol] + CCCCC(CC)CO
x1 = 1
Settings | refractive index | relative permittivity
[1] | – | 17.5
[2] | 1.3988 | –

CCO [ethanol] + CCCCC(CC)CO
x1 = 1
Settings | refractive index | relative permittivity
[1] | – | 23.646
[2] | 1.3592 | –

CCCCC(CC)CO (configuration not stated) [2-ethyl-1-hexanol]
Settings | refractive index | relative permittivity
[3] | 1.4316 | –
[4] | – | 7.354

CC(C)(C)O [2-methylpropan-2-ol]
Settings | refractive index | relative permittivity
[3] | 1.3864 | –
[4] | – | 12.23

CCCCC(CC)CO (configuration not stated) [2-ethyl-1-hexanol] + CCCCO
Settings | refractive index, [2] | relative permittivity, [1]
x2 = 0 | 1.4316 | 7.354
x2 = 0.1 | 1.4291 | 8.21
x2 = 0.15 | 1.4278 | 8.682
x2 = 0.3 | 1.4238 | 10.48
x2 = 0.42 | 1.4214 | 11.42
x2 = 0.53 | 1.4182 | 12.01
x2 = 0.63 | 1.415 | 12.9
x2 = 0.72 | 1.412 | 14.34
x2 = 0.8 | 1.4088 | 15.21
x2 = 0.9 | 1.4036 | 16.41

CCO [ethanol]
Settings | refractive index | relative permittivity
[3] | 1.3592 | –
[4] | – | 23.646

CCCCO [butan-1-ol]
Settings | refractive index | relative permittivity
[3] | 1.3988 | –
[4] | – | 17.5

C1CCCCC1 [cyclohexane] + CCO
Settings | refractive index, [2] | relative permittivity, [1]
x2 = 0.1 | 1.4235 | 2.155
x2 = 0.24 | 1.4179 | 2.571
x2 = 0.42 | 1.4103 | 4.223
x2 = 0.55 | 1.4032 | 6.462
x2 = 0.66 | 1.3953 | 8.974
x2 = 0.74 | 1.3887 | 11.249
x2 = 0.81 | 1.3813 | 13.878
x2 = 0.9 | 1.3733 | 17.89
